Laboratory results: patent US10442804B2, “Compounds for the treatment of hepatitis B virus infection” (Gilead Sciences, Inc., priority 2017, dated 2019)
Like-named read-outs stand apart in the source and are kept apart here.

Key:
[1] = system: MT-4 cell line (HTLV-1 transformed, human T lymphoblastoid cells); experiment: MT-4 cytotoxicity assay; format: cell-based; details: five days, Cell Titer Glo luminescence
[2] = system: HBV-infected NTCP-HepG2 cells, secreted HBsAg; experiment: microbe, parasite or virus in culture; format: cell-based, hepatitis B virus (genotype D, AD38-derived); details: secreted HBsAg in supernatant after 5 days, geometric mean of minimum four determinations, read-out: NTCP HBsAg EC50
Procedure, shortened: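 NTCP-HepG2 cells were infected with genotype D HBV at 4000 genome equivalents/cell, then seeded 4 days post-infection with serially diluted compounds (1% DMSO) for 5 days. Supernatant HBsAg was measured by chemiluminescent MSD immunoassay. EC50 from four-parameter fit, geometric mean of ≥4 determinations.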

[3] = In vitro metabolic stability, hepatocyte stability (dog); format: in vitro ADME; details: Dog hepatocytes, read-out: hepatocyte stability T1/2 (converted)
Experimental: (§1) Biological Example 3: In Vitro Metabolic Stability
(§2) For hepatocyte stability incubations, cells were obtained from BioreclamationIVT (Baltimore, Md.), thawed according to the manufacturer's directions, and resuspended to a final concentration of 1×10^6 cells/mL in Krebs-Henseleit buffer prewarmed to 37° C. The total cell count and the proportion of viable cells were determined by Trypan Blue dye exclusion using a hemocytometer. The final concentration of test compounds and positive controls was 2 μM. Incubations were carried out in duplicate wells of a 24-well plate out with gentle shaking at 37° C. under a humid atmosphere of 95% air/5% CO2 (v/v). Aliquots (50 μL) were removed after 0, 1, 3, and 6 hours and added to 100 μL quenching solution. Samples were then processed and analyzed in a manner similar to the microsomal stability samples.
(§3) Quantification of test compounds and positive controls were performed using analyte/internal standard peak area ratios (PAR) measured on a Q-Exactive mass spectrometer (Thermo Scientific, San Jose, Calif.) coupled to an Aria Transcend LX-4 multiplex UHPLC system (Thermo Scientific, San Jose, Calif.). […] Half-lives of compounds in the incubations were calculated from extracted data using GMSU/QuickCalc (Gubbs, Inc.) and data are summarized in the following Table 2.

[4] = In vitro metabolic stability, hepatocyte stability (rat); format: in vitro ADME; details: Rat hepatocytes, read-out: hepatocyte stability T1/2 (converted)
Experimental: as §1, §2, §3

[5] = In vitro metabolic stability, hepatocyte stability (human); format: in vitro ADME; details: Human hepatocytes, read-out: hepatocyte stability T1/2 (converted)
Experimental: as §1, §2, §3

MT-4 cytotoxicity assay = format: cell-based, human; details: human, five days, Cell Titer Glo luminescence; read-out: MT-4 CC50
[6] = In vitro metabolic stability, hepatocyte stability (cynomolgus monkey); format: in vitro ADME; details: Cyno hepatocytes, read-out: hepatocyte stability T1/2 (converted)
Experimental: as §1, §2, §3

[7] = system: Human iPSC derived iCell GABAergic Neurons; experiment: Human iPSC neurite outgrowth assay; format: cell-based
Experimental: Biological Example 4: Toxicology Study
Human iPSC Neurite Outgrowth Assay
Human induced pluripotent stem cell (iPSC) derived iCell GABAergic Neurons (Cellular Dynamics Inc.) were seeded at a density of 67,500 cells per square centimeter into 384 well plates. The neurons were plated for 1 hour in attachment media before exchange for serum-free growth media (Cellular Dynamics Inc.). The serum-free growth media was exchanged for fresh media and the plated neurons were treated with test compounds and control compounds at 6 concentrations (1 nM-100 μM) at 4 and 24 hour timepoints in triplicate wells. Optimum neuron cell attachment to the plates was obtained at the 24 hour timepoint. Vincristine was utilized as the positive control for toxic inhibition of neurite outgrowth and 0.1% DMSO treatment was used for control treatment of neurons. Celltracker and DRAQ7 stains were applied prior to fixation of cells to assess nuclear and cell viability. Cells were then fixed for 20 minutes in 4% formaldehyde in PBS containing Hoechst dye and then fixative was replaced with PBS twice. High content imaging was performed with 9 fields of 20× magnification on a CX7 HCS system with an algorithm to enable quantification of neurite lengths and neurite branch points in all treatment groups. The results of the counts and measurements were then analyzed by the strictly standardized mean difference (SSMD) method of analysis to measure effect size for any decreases in mean neurite total length per cell (microns) or changes in mean branch point counts per cell (PhenoVista Biosciences, San Diego). FIG. 1 depicting plots of mean branch point counts per cell as a function of concentration for Vincristine, RG783/R07020322, and Compound 73 (free base, purified without addition of TFA). […]

COCCCOc1cc2c(cc1Cl)-c1cc(=O)c(C(=O)O)cn1[C@H]1[C@@H]2CCC1(C)C (racemic) [Example 32, cis-10-chloro-11-(3-methoxypropoxy)-3,3-dimethyl-7-oxo-1,2,3,3a,7,12b-hexahydrocyclopenta[c]pyrido[2,1-a]isoquinoline-6-carboxylic acid]
CC50 [1]: 6000 nM
EC50 [2]: 120 nM

COCCCOc1cc2c(cc1Cl)-c1cc(=O)c(C(=O)O)cn1N1[C@@H]2CCC1(C)C (single isomer, unassigned) [Example 5]
half-life at 2 μM [3]: > 39.5 h
half-life at 2 μM [4]: > 39.5 h
half-life at 2 μM [5]: > 39.5 h
CC50 at 5 days (MT-4 cytotoxicity assay): > 10000 nM
EC50 ([2]; Hepatitis B virus, 120 h): 1.7 nM
half-life at 2 μM [6]: 20.8 h

COCCCOc1cc2c(cc1OC)-c1cc(=O)c(C(=O)O)cn1[C@H](C(C)C)C2 [RG7834/R07020322]
neurite total length and branch point counts [7]: significant decreases
Decreased Neurite Length SSMD Values ([7]; human, 4 h, 10 μM): −3.8
Branch Point Count SSMD Values ([7]; human, 4 h, 100 μM): −5.2
Decreased Neurite Length SSMD Values ([7]; human, 4 h, 100 μM): −4.0
Branch Point Count SSMD Values ([7]; human, 24 h, 1 μM): −3.3
Decreased Neurite Length SSMD Values ([7]; human, 24 h, 1 μM): −3.4
Branch Point Count SSMD Values ([7]; human, 24 h, 10 μM): −3.4
Decreased Neurite Length SSMD Values ([7]; human, 24 h, 10 μM): −5.9
Branch Point Count SSMD Values ([7]; human, 24 h, 100 μM): −5.0
Decreased Neurite Length SSMD Values ([7]; human, 24 h, 100 μM): −4.5

CC[C@]1(O)C[C@H]2CN(CCc3c([nH]c4ccccc34)[C@@](C(=O)OC)(c3cc4c(cc3OC)N(C=O)[C@H]3[C@@](O)(C(=O)OC)[C@H](OC(C)=O)[C@]5(CC)C=CCN6CC[C@]43[C@@H]65)C2)C1 [Vincristine]
neurite total length and branch point counts ([7]; 4 and 24 hour treatments, vs 0.1% DMSO treated neurons, SSMD analysis): significant decreases
Branch Point Count SSMD Values ([7]; 4 hr, 0.001 μM, vs 0.1% DMSO): NS (NS = no significant effect and >−3 SSMD Values.)
Decreased Neurite Length SSMD Values ([7]; 4 hr, 0.001 μM, vs 0.1% DMSO): NS (NS = no significant effect and >−3 SSMD Value.)
Branch Point Count SSMD Values ([7]; 4 hr, 0.01 μM, vs 0.1% DMSO): NS (NS = no significant effect and >−3 SSMD Values.)
Decreased Neurite Length SSMD Values ([7]; 4 hr, 0.01 μM, vs 0.1% DMSO): NS (NS = no significant effect and >−3 SSMD Value.)
Branch Point Count SSMD Values ([7]; 4 hr, 0.1 μM, vs 0.1% DMSO): NS (NS = no significant effect and >−3 SSMD Values.)
Decreased Neurite Length SSMD Values ([7]; 4 hr, 0.1 μM, vs 0.1% DMSO): NS (NS = no significant effect and >−3 SSMD Value.)
Branch Point Count SSMD Values ([7]; 4 hr, 1 μM, vs 0.1% DMSO): NS (NS = no significant effect and >−3 SSMD Values.)
Decreased Neurite Length SSMD Values ([7]; 4 hr, 1 μM, vs 0.1% DMSO): −7.3
Branch Point Count SSMD Values ([7]; 4 hr, 10 μM, vs 0.1% DMSO): −3.0
Decreased Neurite Length SSMD Values ([7]; 4 hr, 10 μM, vs 0.1% DMSO): −5.7
Branch Point Count SSMD Values ([7]; 4 hr, 100 μM, vs 0.1% DMSO): −3.5
Decreased Neurite Length SSMD Values ([7]; 4 hr, 100 μM, vs 0.1% DMSO): −10
Branch Point Count SSMD Values ([7]; 24 hr, 0.001 μM, vs 0.1% DMSO): NS (NS = no significant effect and >−3 SSMD Values.)
Decreased Neurite Length SSMD Values ([7]; 24 hr, 0.001 μM, vs 0.1% DMSO): NS (NS = no significant effect and >−3 SSMD Value.)
Branch Point Count SSMD Values ([7]; 24 hr, 0.01 μM, vs 0.1% DMSO): NS (NS = no significant effect and >−3 SSMD Values.)
Decreased Neurite Length SSMD Values ([7]; 24 hr, 0.01 μM, vs 0.1% DMSO): NS (NS = no significant effect and >−3 SSMD Value.)
Branch Point Count SSMD Values ([7]; 24 hr, 0.1 μM, vs 0.1% DMSO): NS (NS = no significant effect and >−3 SSMD Values.)
Decreased Neurite Length SSMD Values ([7]; 24 hr, 0.1 μM, vs 0.1% DMSO): NS (NS = no significant effect and >−3 SSMD Value.)
Branch Point Count SSMD Values ([7]; 24 hr, 1 μM, vs 0.1% DMSO): −3.1
Decreased Neurite Length SSMD Values ([7]; 24 hr, 1 μM, vs 0.1% DMSO): −4.9
Branch Point Count SSMD Values ([7]; 24 hr, 10 μM, vs 0.1% DMSO): −3.6
Decreased Neurite Length SSMD Values ([7]; 24 hr, 10 μM, vs 0.1% DMSO): −5.4
Branch Point Count SSMD Values ([7]; 24 hr, 100 μM, vs 0.1% DMSO): −6.0
Decreased Neurite Length SSMD Values ([7]; 24 hr, 100 μM, vs 0.1% DMSO): −6.6
neuron counts or neuron viability ([7]; any of the tested concentrations (1 nM-100 μM), vs 0.1% DMSO control, SSMD analysis): No significant changes of effect

COCCCOc1cc2c(cc1COC)-c1cc(=O)c(C(=O)O)cn1N1[C@@H]2CCC1(C)C [Example 73, (R)-11-(methoxymethyl)-12-(3-methoxypropoxy)-3,3-dimethyl-8-oxo-2,3,8,13b-tetrahydro-1H-pyrido[2,1-a]pyrrolo[1,2-c]phthalazine-7-carboxylic acid]
neurite total length and branch point counts [7]: No significant effects
CC50 at 5 days (MT-4 cytotoxicity assay): > 10000 nM
EC50 ([2]; Hepatitis B virus, 120 h): 1.9 nM

COCCCOc1cc2c(cc1Cl)-c1cc(=O)c(C(=O)O)cn1[C@H]1[C@@H]2CCC1(C)C (single isomer, unassigned) [Example 33]
half-life at 2 μM [3]: 5.7 h
half-life at 2 μM [4]: 1.6 h
half-life at 2 μM [5]: 21.6 h
CC50 at 5 days (MT-4 cytotoxicity assay): 7900 nM
EC50 ([2]; Hepatitis B virus, 120 h): 1.8 nM
half-life at 2 μM [6]: 5.6 h
